Measured values published in paper PMC5011342, “A high throughput drug screening assay to identify compounds that promote oligodendrocyte differentiation using acutely dissociated and purified oligodendrocyte precursor cells” (BMC Research Notes, 2016).
Read-outs that look alike come from different tables or passages of the source.

Key:
[1] = tested on: acutely dissociated and purified rat OPCs; assay: Acute OL differentiation assay (MBP expression/cell, immunofluorescent image quantification); type: cell-based; conditions: sheet "All OLga data"; for activation at 2 µM / activation at 10 µM / activation at 0.4 µM / activation at 0.08 µM: Rattus norvegicus, relative to quetiapine
Summary of the method: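 Oligodendrocyte precursor cells were enriched from P6-P7 Sprague–Dawley rat brains by immunopanning (RAN-2 and GalC depletion, O4 selection), plated at 5000 cells/well in serum-free, mitogen-free differentiation media on PDL/laminin 96-well view plates, centrifuged at 200×g, and pre-incubated 1–2 h before test compounds were added in quadruplicate. On DIV4, cells were fixed, stained for MBP and DAPI, imaged automatically, and MBP expression per cell was quantified.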

expanded OPCs = assay: cells; conditions: for viability at 0.1 µM / viability at 1 µM / viability at 10 µM: Rattus norvegicus, 72 h
Summary of the method: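 Expanded OPCs seeded at 10,000 cells/well in differentiation media, then exposed to NCC library compounds at 10, 1 and 0.1 µM (quadruplicate, 0.1% DMSO) for three days. Viability read as alamarBlue fluorescence (560/590 nm) after 4 h at 37 °C; tunicamycin 5 ng/ml served as toxicity control.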

[2] = test compound at 2 uM, NCC library screen, read-out: 2 uM (% Quet)
[3] = test compound at 10 uM, NCC library screen, read-out: 10 uM (% Quet)
[4] = read-out: 0.1 µM (% DMSO), alamarBlue viability, NCC library compound at 0.1 µM, sheet "All Tox data"
[5] = read-out: 1 µM (% DMSO), alamarBlue viability, NCC library compound at 1 µM, sheet "All Tox data"
[6] = read-out: 10 µM (% DMSO), alamarBlue viability, NCC library compound at 10 µM, sheet "All Tox data"
[7] = alamarBlue viability of expanded OPCs, compound at 0.1 µM, relative to DMSO control
[8] = alamarBlue viability of expanded OPCs, compound at 1 µM, relative to DMSO control
[9] = alamarBlue viability of expanded OPCs, compound at 10 µM, relative to DMSO control
[10] = 2 uM test compound, read-out: OL differentiation, 2 uM (% Quet)
[11] = 10 uM test compound, read-out: OL differentiation, 10 uM (% Quet)
[12] = read-out: 0.1 µM (% DMSO), alamarBlue viability of expanded OPCs, compound at 0.1 µM, sheet All Tox data
[13] = read-out: 1 µM (% DMSO), alamarBlue viability of expanded OPCs, compound at 1 µM, sheet All Tox data
[14] = read-out: 10 µM (% DMSO), alamarBlue viability of expanded OPCs, compound at 10 µM, sheet All Tox data
[15] = 0.4 uM test compound, read-out: OL differentiation, 0.4 uM (% Quet)

SMILES | activation at 2 µM [1, 2] | activation at 10 µM [1, 3] | viability at 0.1 µM (expanded OPCs; [4]) | viability at 1 µM (expanded OPCs; [5]) | viability at 10 µM (expanded OPCs; [6]) | activation at 2 µM [1, 10] | activation at 10 µM [1, 11] | viability at 0.1 µM (expanded OPCs; [12]) | viability at 1 µM (expanded OPCs; [13]) | viability at 10 µM (expanded OPCs; [14]) | further results
c1ccc2c3c([nH]c2c1)CNCC3 [Tryptoline] | -12.9% | -20.7% | 103% | 92.4% | 62.6% | – | – | – | – | – | –
c1ccc2c(c1)CCCC2C1=NCCN1 (stereo not drawn) [Tyzine] | -6% | 0.3% | – | – | – | – | – | – | – | – | 0.1 µM (% DMSO) (expanded OPCs; [7]): 181.2 % DMSO; 1 µM (% DMSO) (expanded OPCs; [8]): 186.3 % DMSO; 10 µM (% DMSO) (expanded OPCs; [9]): 187.5 % DMSO
CC(C)C[C@H](NC(=O)[C@@H](O)[C@H](N)Cc1ccccc1)C(=O)O [Ubenimex] | -3.1% | 9.5% | 112% | 112% | 123% | – | – | – | – | – | –
COc1ccccc1N1CCN(CCCNc2cc(=O)n(C)c(=O)n2C)CC1 [Urapidil] | – | – | – | – | – | 24.2% | 8.4% | 84.5% | 89.8% | 96.2% | –
CC(C)[C@H](N)C(=O)OCCOCn1cnc2c(=O)[nH]c(N)nc21 [Valaciclovir] | – | – | – | – | – | -1.4% | -8.7% | 91.4% | 98% | 102% | –
Cc1onc(-c2ccccc2)c1-c1ccc(S(N)(=O)=O)cc1 [Valdecoxib] | – | – | – | – | – | 8.7% | -33.1% | 109% | 104% | 105% | –
CCCC(CCC)C(=O)O [Valproic Acid] | -5.2% | -29.7% | 97.5% | 93.1% | 104% | – | – | – | – | – | –
CCCCC(=O)N(Cc1ccc(-c2ccccc2-c2nnn[nH]2)cc1)[C@H](C(=O)O)C(C)C [Valsartan] | – | – | 86.6% | 84% | 82.9% | 10.7% | -1% | – | – | – | –
CC(=O)O[C@H]1C[C@@H]2CC[C@@H]3[C@H](CC[C@@]4(C)[C@H]3C[C@H]([N+]3(C)CCCCC3)[C@@H]4OC(C)=O)[C@@]2(C)C[C@@H]1N1CCCCC1 [Vecuronium Bromide] | 13.2% | 17.7% | 86.3% | 87.7% | 78.4% | – | – | – | – | – | –
COc1ccc(C(CN(C)C)C2(O)CCCCC2)cc1 (stereo not drawn) [Venlafaxine] | – | – | – | – | – | 4% | -26% | 89.1% | 85.2% | 76.7% | –
Nc1ncnc2c1ncn2[C@@H]1O[C@H](CO)[C@@H](O)[C@@H]1O [Vidarabine] | -12.9% | – | 90.6% | 84.9% | 48.9% | – | – | – | – | – | activation at 0.4 µM ([1]; test compound at 0.4 uM, NCC library screen, read-out: 0.4 uM (% Quet)): -2.3%
CC[C@]1(O)C[C@@H]2CN(CCc3c([nH]c4ccccc34)[C@@](C(=O)OC)(c3cc4c(cc3OC)N(C)[C@H]3[C@@](O)(C(N)=O)[C@H](O)[C@]5(CC)C=CCN6CC[C@]43[C@@H]65)C2)C1 [Vindesine] | – | – | – | 11.4% | 9.2% | – | – | – | – | – | activation at 0.08 µM ([1]; test compound at 0.08 uM, NCC library screen, read-out: 0.08 uM (% Quet)): -193%
CCC1=C[C@@H]2CN(C1)Cc1c([nH]c3ccccc13)[C@@](C(=O)OC)(c1cc3c(cc1OC)N(C)[C@H]1[C@@](O)(C(=O)OC)[C@H](OC(C)=O)[C@]4(CC)C=CCN5CC[C@]31[C@@H]54)C2 [Vinorelbine] | – | – | 56.8% | 34.4% | 11.1% | – | – | – | – | – | activation at 0.08 µM ([1]; 0.08 uM test compound, read-out: OL differentiation, 0.08 uM (% Quet)): -20.7%; activation at 0.4 µM [1, 15]: -107%
Cl.Cl.O=C(O)COCCN1CCN(C(c2ccccc2)c2ccc(Cl)cc2)CC1 (stereo not drawn) [Virlix] | – | – | – | – | – | – | – | – | – | – | 2 uM (% Quet) ([1]; test compound at 2 uM, MBP expression relative to quetiapine, NCC library screen): 3.4 % Quet; 10 uM (% Quet) ([1]; test compound at 10 uM, MBP expression relative to quetiapine, NCC library screen): -0.36 % Quet; 0.1 µM (% DMSO) (expanded OPCs): 98.3 % DMSO; 1 µM (% DMSO) (expanded OPCs): 92.7 % DMSO; 10 µM (% DMSO) (expanded OPCs): 81.0 % DMSO
C[C@@H](c1ncncc1F)[C@](O)(Cn1cncn1)c1ccc(F)cc1F [Voriconazole] | – | – | – | – | – | 4.8% | 10% | 99.1% | 97.4% | 96% | –
CC(=O)CC(c1ccccc1)c1c(O)c2ccccc2oc1=O (stereo not drawn) [Warfarin] | -4.3% | -2% | – | – | – | – | – | – | – | – | 0.1 µM (% DMSO) (expanded OPCs; [7]): 92.9 % DMSO; 1 µM (% DMSO) (expanded OPCs; [8]): 93.8 % DMSO; 10 µM (% DMSO) (expanded OPCs; [9]): 96.2 % DMSO
COc1cc(N)c(Cl)cc1C(=O)NC1CN2CCC1CC2 (stereo not drawn) [Zacopride] | – | – | – | – | – | 6.8% | 13% | 87% | 88.6% | 91.9% | –
COc1cc(C(=O)NS(=O)(=O)c2ccccc2C)ccc1Cc1cn(C)c2ccc(NC(=O)OC3CCCC3)cc12 [Zafirlukast] | – | – | 94.9% | 78.7% | 41.9% | -96.7% | – | – | – | – | activation at 0.4 µM [1, 15]: -24.7%
Nc1ccn([C@H]2CC[C@@H](CO)O2)c(=O)n1 [Zalcitabine] | – | – | 95.4% | 86.4% | 79.3% | -5.5% | -96.7% | – | – | – | –
CCN(C(C)=O)c1cccc(-c2ccnc3c(C#N)cnn23)c1 [Zaleplon] | 12.3% | -15.8% | 87.8% | 86.8% | 86.1% | – | – | – | – | – | –
COc1cc(-c2ccc(=O)[nH]n2)ccc1OC(F)F [Zardaverine] | – | – | – | – | – | 4.1% | -36.7% | 86.5% | 93.5% | 67.4% | –
C[C@H]1CCC[C@H](O)CCCCCc2cc(O)cc(O)c2C(=O)O1 [Zeranol] | – | – | – | – | – | -37.2% | -51.9% | 83.6% | 85.8% | 69.3% | –
